Laboratory results published in US9474759B2 (priority 2011, dated 2016).
Like-named read-outs stand apart in the source and are kept apart here.

Columns and labels:
[1] = system: norovirus (NV replicon-harboring HG23 cells); assay: NV replicon-harboring cells (HG23), NV genome levels by qRT-PCR (Example 1); type: cell-based, Norwalk virus; conditions: read-out: ED50, effective dose that inhibits 50% of norovirus replication, NV genome levels at 24 hrs post-treatment
[2] = system: murine norovirus-1 (MNV-1); assay: MNV-1 replication in RAW267.4 cells, TCID50 (Example 1); type: cell-based; conditions: Norwalk virus, MOI 2, TCID50 assay, read-out: ED50, replication of murine norovirus (MNV)
[3] = system: HAV; assay: Cell culture system, HAV replication in FRhK-4 cells (Example 3); type: cell-based, hepatitis A virus
[4] = system: FIPV-1146; assay: FIPV-1146 replication in CRFK cells, TCID50 method; type: cell-based, feline coronavirus; conditions: Alphacoronavirus 1, MOI 0.05, mean ± SEM
Protocol: (§1) Crandell Rees feline kidney (CRFK) cells were maintained in minimal essential medium containing 2-5% fetal bovine serum and antibiotics (chlortetracycline [25 μg/ml], penicillin [250 U/ml], and streptomycin [250 μg/ml]). FIPV WSU 79-1146 and FECV WSU 79-1683 strains are the prototypes of serotype II FIPV or FECV, respectively, and were purchased from ATCC (Manassas, Va.).
(§2) The cells were further incubated in the presence of each compound for 1 hr at 37° C. Then […] or FECV-1683 was inoculated to the cells at a multiplicity of infection (MOI) of 0.05 or 5.
(§3) b. TCID50 Method. A standard TCID50 method with the 10-fold dilution of each sample was used for virus titration.

[5] = target: SARS-CoV 3CLpro (codon-optimized, N-terminal 6 His, recombinant) (Severe acute respiratory syndrome coronavirus, UniProt P0C6X7); assay: biochemical
[6] = PK and oral bioavailability studies in rats; conditions: 20 mg/Kg (body weight), IV or PO
[7] = system: 229E; assay: Cell-based screening, 229E in MRC-5 cells (Example 2); conditions: Human coronavirus 229E, MRC5; MRC-5 cells; read-out: Inhibition [ED50 (μM)] against various viruses: Coronavirus, 229E
Protocol: 3. Cell-based screening of inhibitor. The effects of each inhibitor on the viral replication were examined. The list of viruses and corresponding cell lines are listed above in Table 2. Briefly, confluent cells were inoculated with virus at a MOI of 5 or 0.05 for 1 hr, and medium was replaced with medium containing mock-medium or each compound (up to 100 μM). The virus infected cells were further incubated for up to 96 hrs, and the replication of virus was measured by TCID50 assay with the 10-fold dilution of each sample used for virus titration (Reed and Muench, 1938). In some viruses, the virus protein and genome expression levels were detected by Western blot analysis and real-time qRT-PCR, respectively, as described below. The IC50s of the compounds were calculated.

[8] = system: Teschovirus; assay: organism not typed; type: cell-based, porcine teschovirus; conditions: read-out: Inhibition [ED50 (μM)] against various viruses: Picornavirus, Teschovirus
[9] = target: MD145 3CLpro (codon-optimized, full-length, N-terminal 6 His, recombinant) (Lordsdale virus, UniProt P54634); assay: biochemical; design: species or system norovirus strain MD145 (human norovirus GII)
MD145 3CLpro (codon-optimized, full-length, N-terminal 6 His, recombinant), sequence (P54634 1009-1189): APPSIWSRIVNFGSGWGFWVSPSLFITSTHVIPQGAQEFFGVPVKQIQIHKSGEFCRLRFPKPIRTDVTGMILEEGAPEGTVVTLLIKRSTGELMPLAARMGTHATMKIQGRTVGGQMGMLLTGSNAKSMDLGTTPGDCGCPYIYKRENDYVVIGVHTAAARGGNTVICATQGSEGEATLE

[10] = system: FCV; assay: Cell culture system, FCV replication in CRFK cells (Example 3); type: cell-based, feline calicivirus; conditions: Feline calicivirus; cell-based assay, CRFK cells; read-out: IC50 against FCV replication
[11] = system: FECV-1683; assay: FECV-1683 replication in CRFK cells, TCID50 method; type: cell-based, feline coronavirus; conditions: Alphacoronavirus 1, MOI 0.05, mean ± SEM
Protocol: as §1, §2, §3

[12] = target: Norwalk virus 3CL protease (NV3CL protease), recombinant (Norovirus, UniProt Q83883); assay: Recombinant NV protease FRET inhibition assay (Edans-[…]-Dabcyl substrate), FIG. 4; type: biochemical; conditions: 2.5 μM enzyme, 300 nM Edans-EPDFHLQGPEDLAK-Dabcyl, 30 min incubation, 30° C., pH 8.0
Norwalk virus 3CL protease (NV3CL protease), recombinant, sequence (Q83883 1101-1281): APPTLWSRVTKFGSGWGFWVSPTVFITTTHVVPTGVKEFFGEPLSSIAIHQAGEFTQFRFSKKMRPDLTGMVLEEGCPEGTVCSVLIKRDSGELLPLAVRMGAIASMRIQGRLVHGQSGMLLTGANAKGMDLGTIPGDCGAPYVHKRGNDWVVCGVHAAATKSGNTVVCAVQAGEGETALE
Protocol: After a 30 minute incubation period, 5 μL of 12 μM Edans-[…]-Dabcyl (SEQ ID NO:1) substrate in DMSO was then added and the increase in fluorescence was monitored for 30 minutes at an excitation and emission wavelength of 360 and 460 nm, respectively. Using a HORIBA FluoroMax 4 spectrofluorometer. Hydrolysis curves were linear. The final enzyme and substrate concentrations were 2.5 μM and 300 nM, respectively. […] Furthermore, the nature of the cap was also important (compare, for example, inhibitors A and D).

[13] = target: TGEV 3CL protease (Porcine transmissible gastroenteritis coronavirus, UniProt P0C6Y5); assay: FRET-based protease assay, TGEV 3CL protease (Example 5); type: biochemical, TGEV Miller strain
TGEV 3CL protease, sequence (P0C6Y5 2879-3180): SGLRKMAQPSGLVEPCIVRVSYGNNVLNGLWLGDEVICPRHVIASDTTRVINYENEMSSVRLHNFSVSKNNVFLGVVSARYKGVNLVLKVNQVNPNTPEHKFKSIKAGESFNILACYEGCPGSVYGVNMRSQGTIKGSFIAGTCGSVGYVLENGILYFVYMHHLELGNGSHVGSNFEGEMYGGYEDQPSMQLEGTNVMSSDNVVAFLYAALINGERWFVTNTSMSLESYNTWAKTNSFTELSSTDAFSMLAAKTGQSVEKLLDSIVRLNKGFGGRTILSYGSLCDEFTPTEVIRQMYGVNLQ
Source text: The 3CL proteases are highly conserved among all coronaviruses, and feline coronavirus 3CL protease is closely related TGEV 3CL protease. Therefore we cloned and expressed the TGEV 3CL protease for the FRET assay. The cDNA encoding the full length of 3CL protease of TGEV Miller strain was amplified with RT-PCR as previously described. The primers contained the nucleotide sequence of the 3CL protease for cloning as well as the nucleotides for 6 Histidine in the forward primer. The amplified product was subcloned to pET-28a(+) vector (GenScript, Piscataway, N.J.). The expression and purification of the 3CL protease was performed with a standard method described previously by our lab (Chang et al., 2012b; Takahashi et al., 2012; Tiew et al., 2011).
Our protease inhibitor compounds and commercial cathepsin inhibitors CA074-Me and E64d were prepared in DMSO as stock solutions (10 mM), and further diluted in assay buffer consisting of 20 mM HEPES, 0.4 mM EDTA, 30% glycerol, 120 mM NaCl, and 4 mM DTT at pH 6. […] TGEV 3CL protease at a final concentration of 0.1˜0.2 μM and the substrate (Dabcyl-[…]-Edans; SEQ ID NO:2) at 10 μM were used for the studies. The substrate was purchased from Bachem Americas, Inc (Torrance, Calif.). Compounds at various concentrations (0˜50 μM) were pre-incubated with TGEV 3CL protease in 25 μl for 30 min at 37° C., and the same volume of substrate was added to a 96-well black plate. The mixtures were then incubated at 37° C. for 60 min, and fluorescence readings were obtained on a microplate reader at 360 nm excitation and 480 nm emission wavelengths. The relative fluorescence units (RFU) were calculated by subtracting background (substrate control well without protease) from the fluorescence readings. The dose-dependent FRET inhibition curves were fitted with variable slope (four parameters) using GraphPad Prism software (La Jolla, Calif.) in order to determine the compound concentration that gives a half-maximum response (IC50).

CC(C)C[C@H](NC(=O)OCc1ccccc1)C(=O)N[C@H](C=O)C[C@@H]1CCNC1=O [GC373]
EC50 [1]: 2100 nM | EC50 [2]: 5500 nM | effectiveness against the replication of HAV in cells (in words) [3]: no or weak effectiveness | EC50 ([4]; 24 hr post infection, read-out: Inhibition [ED50 (μM)] against FIPV-1146, 24 hrs): 0.07 ± 0.04 µM | EC50 ([4]; 48 hr post infection, read-out: Inhibition [ED50 (μM)] against FIPV-1146, 48 hrs): 0.43 ± 0.35 µM | IC50 [5]: 3480 ± 1590 nM | oral bioavailability, % F [6]: 3 % F | EC50 [7]: 0.2 µM | EC50 [8]: 0.15 µM | IC50 [9]: 1180 nM | IC50 [10]: 65000 nM | EC50 ([11]; 24 hr post infection, read-out: Inhibition [ED50 (μM)] against FECV-1683, 24 hrs): 0.04 ± 0.01 µM | EC50 ([11]; 48 hr post infection, read-out: Inhibition [ED50 (μM)] against FECV-1683, 48 hrs): 0.09 ± 0.01 µM | IC50 [12]: 1820 nM | IC50 ([13]; TGEV 3CL protease, read-out: IC50 against 3CL protease in the FRET assay): 980 nM | inhibition of the activity of TGEV 3CL protease (in words) ([13]; compound at 50 μM final concentration): remarkably inhibited
